# Measured values as given in PMC5470993, “Discovery and characterization of small molecule Rac1 inhibitors” (Oncotarget, 2017).
# Where two headings read alike, the source gives them in different places.
# Key:
# [1] = molecular target: T1, Rac1 (endogenous, CD18/HPAF cells) (Homo sapiens, UniProt P63000); test: Rac1-GTP pull-down with GST-PAK1 from EGF-stimulated cells, immunoblot; assay type: cell-based; conditions: intact cells, 2 h compound, then EGF 100 ng/ml 5 min
# T1 construct: endogenous Rac1 of CD18/HPAF human pancreatic cancer cells; Rac1-GTP captured with GST-PAK1 and blotted with Rac1 antibody 23A8
# [2] = molecular target: T2, Rac1 (His-Rac1) (Homo sapiens, UniProt P63000); test: GST-PAK1 pull-down of Rac1-GTP-γS, immunoblot; assay type: binding
# T2 construct: wild type by context
# [3] = molecular target: T2, Rac1 (His-Rac1); test: GST-PAK1 pull-down of Rac1-GTP-γS, immunoblot; conditions: read-out: apparent binding affinity
# [4] = molecular target: T2, Rac1 (His-Rac1); test: fluorescence polarization competition with mant-GDP; assay type: binding
Structure (SMILES),EC50 [1] [µM],IC50 [2] [µM],Kd [3] [µM],IC50 ([2]; read-out: IC50) [µM],Ki [4] [µM]
"Cc1cc(C)cc(NC(=O)Cn2cc(C(=O)c3cccs3)c3ccccc32)c1 [#6, compound #6]",22.4 ± 3.2,0.088 ± 0.048,–,–,–
Nc1nc2c(ncn2[C@@H]2O[C@H](COP(=O)(O)OP(=O)(O)OP(O)(O)=S)[C@@H](O)[C@H]2O)c(=O)[nH]1 [GTP-γS],–,–,0.243 ± 0.093,–,–
"CC(=O)c1cccc(NC(=O)c2ccc(-c3cccc([N+](=O)[O-])c3)o2)c1 [#1, compound #1]",8.3 ± 1.7,–,–,0.095 ± 0.021,6.8 ± 1.4
